Reference: patent US9326988B2, “Treatment and/or prevention of parkinson's disease dementia with ceftriaxone” (CHUNG SHAN MEDICAL UNIVERSITY, priority 2012, dated 2016)

What was measured:
rats with PDD = assay: T-maze test (working memory) in MPTP-HCl-induced PDD rats; format: in vivo, male Wistar rats
Description: 1-methyl-4-phenyl-1,2,3,6-tetrahydropyridine hydrochloride (MPTP-HCl) was used to induce PDD in the rats, and the therapeutic effect of ceftriaxone on PDD was evaluated via behavioral tests and histopathological assessment of the brain for the rats. The experiments of this example were conducted substantially according to the method as described in Ho Y. J. et al. (2011), Behav. Brain Res., 219:280-290.
The rats in the pathological control group, the preventive groups, and the treatment groups were anesthetized using Zoletil (Virbac, Carros, France; 20 mg/kg, intraperitoneal injection). Afterward, 0.5 M MPTP-HCl (in saline) was slowly infused bilaterally into the substantia nigra pars compacta (SNc) of the mesencephalon of each rat in the pathological control group, the preventive groups, and the treatment groups (0.21 mg/side) so as to induce the same to develop PDD.
5 days before the MPTP-HCl injection, ceftriaxone (Sigma) was administered to the rats in the preventive groups 1,2 via […] day after the MPTP-HCl injection. After the MPTP-HCl injection, […] 2,3 via intraperitoneal injection respectively at a daily dose of 200 mg/kg, at a daily dose of 100 mg/kg, and at a daily dose of 200 mg/kg, and saline was administered to the rats in the pathological control group and the sham-operated group 1 via intraperitoneal injection at a daily dose of 1 mL/kg. […] The rats in the pathological control group, the treatment groups 1,2,3, and the sham-operated groups 1,2,3 were subjected to the once-a-day administration until the end of the 14th day after the MPTP-HCl injection.
Starting on the 8th day after the MPTP-HCl injection, the rats in each group were subjected to the T-maze test as described in section C of this example. Starting on the 12th day after the MPTP-HCl injection, the rats in each group were subjected to the object recognition test as described in section D of this example. On the 15th day after the MPTP-HCl injection, the rats in the treatment group 1, the sham-operated group 1, and the pathological control group were subjected to the histopathological analysis as described in section E of this example.
In order to investigate the effect of ceftriaxone on the working memory of the rats with PDD, on the 8th day after the MPTP-HCl injection, 11 rats, 32 rats, and 36 rats were randomly selected respectively from the treatment group 1, the sham-operated group 1, and the pathological control group, and the aforesaid randomly selected rats and each of the rats in the rest of the groups were subjected to a T-maze test. The T-maze test lasted a total of three days, and was conducted substantially according to the following methods: • (1) One day before the start of the T-maze test, the rats are subjected to 23 hours of fasting. Furthermore, on each of three days for the training session, after all of trials were finished, the rats were fed for an hour. • (2) The training session—the 1st and 2nd days of the T-maze test: • The respective rat is subjected to a total of 9 trials. In each of the trials, one forced run and one choice run were sequentially conducted. The time interval between the forced run and the choice run was 30 seconds. The respective rat was placed at the start end 11 of the T-maze to begin either the forced run or the choice run. When the forced run was conducted, the sliding door 22 of one of the two choice arms 2 was closed, and a food serving as a reward was placed at the terminal end 21 of the other one of the two choice arms 2.

normal rats = assay: Object recognition test in sham-operated rats; format: in vivo, male Wistar rats; conditions: determined 14th day (FIG. 4)
Description: The rats in the sham-operated groups were generally subjected to the same surgical procedures for the rats in the pathological control group, the preventive groups, and the treatment groups, except that an equal volume of saline was infused bilaterally into the SNc of the mesencephalon of rats in the shame-operated groups.
5 days before the MPTP-HCl injection, ceftriaxone (Sigma) was administered to the rats in the preventive groups 1,2 via intraperitoneal injection respectively at a daily dose of 100 mg/kg and at a daily dose of 200 mg/kg until the end of the 14th day after the MPTP-HCl injection. After the MPTP-HCl injection, ceftriaxone was administered to the rats in the treatment group 1 and the sham-operated groups 2,3 via intraperitoneal injection respectively at a daily dose of 200 mg/kg, at a daily dose of 100 mg/kg, and at a daily dose of 200 mg/kg, and saline was administered to the rats in the pathological control group and the sham-operated group 1 via intraperitoneal injection at a daily dose of 1 mL/kg. […]
The object recognition test is described as follows. […] By virtue of the video camera, the time spent by the respective rat exploring an object (i.e. the object A1, A2, A3, or B) during a trial (i.e. the first, second, third, or fourth trial) was measured. […]

[1] = tested on: rats chronically exposed to hypobaric hypoxia; conditions: cited from earlier work

percentage of exploration time spent on object B in the fourth trial versus object A3 in the third trial (normal rats; sham-operated group 2: 100 mg/kg daily i.p.): there is statistical significance
percentage of exploration time spent on object B in the fourth trial versus object A3 in the third trial (normal rats; sham-operated group 3: 200 mg/kg daily i.p.): there is statistical significance
SMILES: CO/N=C(\C(=O)N[C@@H]1C(=O)N2C(C(=O)O)=C(CSc3nc(=O)c(=O)[nH]n3C)CS[C@H]12)c1csc(N)n1 [ceftriaxone, Ceftriaxone]
correct response rate compared to the pathological control group (rats with PDD; Example 1 preventive group 1: 100 mg/kg daily i.p. from 5 days before MPTP-HCl to 14th day after, determined 10th day (FIG. 3)): higher
correct response rate compared to the pathological control group (rats with PDD; Example 1 preventive group 2: 200 mg/kg daily i.p. from 5 days before MPTP-HCl to 14th day after, determined 10th day (FIG. 3)): higher
correct response rate compared to the pathological control group (rats with PDD; Example 1 treatment group 1: 200 mg/kg daily i.p. after MPTP-HCl injection to 14th day, determined 10th day, difference statistically significant (FIG. 3)): higher
correct response rate compared to the pathological control group (rats with PDD; Example 1 treatment group 2: 100 mg/kg daily i.p. starting 3rd day after MPTP-HCl to 14th day, determined 10th day, difference statistically significant (FIG. 3)): higher
correct response rate compared to the pathological control group (rats with PDD; Example 1 treatment group 3: 200 mg/kg daily i.p. starting 3rd day after MPTP-HCl to 14th day, determined 10th day, difference statistically significant (FIG. 3)): higher
correct response rate compared to the pathological control group (rats with PDD; Example 2 treatment group 1: 10 mg/kg daily i.p. after MPTP-HCl injection to 14th day, determined 10th day (FIG. 7)): significantly higher
correct response rate compared to the pathological control group (rats with PDD; Example 2 treatment group 2: 50 mg/kg daily i.p. after MPTP-HCl injection to 14th day, determined 10th day (FIG. 7)): significantly higher
cognitive impairment resulting from hypobaric hypoxia [1]: capable of ameliorating the cognitive impairment resulting from hypobaric hypoxia
neuronal degeneration and chromatin condensation [1]: decreasing neuronal degeneration and chromatin condensation
oxidative stress in the hippocampus [1]: reducing oxidative stress in the hippocampus
